A short description of data set [1]: Acute intravenous toxicity in mice (LD50, Miller and Tainter). Particulars: mouse, in vivo, mice weighing 20 to 22 g. The procedure:
The chemical compounds described above were subjected to toxicity controls. This study was carried out on conventional mice weighing 20 to 22 g. The watersoluble salts of the compounds of general formula I were administered intravenously. The 50% lethal dose (LD50) is calculated according to the method of Miller and Tainter (Proc. Soc. Exp. Biol. Med. 1944, 57, 261).

A further data set has as its system anesthetized rats. In words: Coronary ligation in anesthetized rats (antiarrhythmic activity and heart rate). Type of data set: in vivo. The following applies: for % fall in heart rate after 1 min: 1 min after injection; for % fall in heart rate after 1 min / % fall in heart rate after 10 min: % change relative to controls; for % fall in heart rate after 10 min: 10 min after injection; for % fall in arrhythmias: coronary ligation. The source says:
a) The technique of coronary ligation in anesthetized rats according to Clark et al. (J. Pharm. […] SC denotes the percentage reduction in disorders of rhythm induced by these compounds, n denotes the number of animals.

Data set [2] concerns rats anesthetized with pentobarbital sodium. In words: Bradycardic effect and intracardiac conduction times (ECG, arterial pressure) in pentobarbital-anesthetized rats. Particulars: for % ABP (mean arterial blood pressure) / % HR (heart rate): % change at peak of action; for % modification of the ECG intervals: PQ (atrioventricular conduction time) / % modification of the ECG intervals: QRS (intraventricular conduction time) / % modification of the ECG intervals: QTS / % modification of the ECG intervals: TP (electrocardiac diastole): at peak of action. Type of data set: in vivo. The procedure:
b) The bradycardic effect and the analysis of the intracardiac conduction times were studied on rats anesthetized with pentobarbital sodium (40 mg/kg ip) and left in spontaneous ventilation. The electrocardiogram is recorded simultaneously in the standard leads OI, OII and OIII; the arterial blood pressure is measured on a femoral artery. The percentage changes are considered at the peak of action. The results relating to the compounds A, B, J, G and N are given in Table III, by way of non-limiting example.

In another data set the test system is conscious dogs. Kind of data set: Bradycardic effect in conscious dogs with hydralazine-raised heart rate (Kobinger and Lillie). Type of data set: in vivo. The procedure: When the latter has stabilized, the test products are injected intravenously.
In a further data set the test system is Right atrium. In words: Chronotropic effect on isolated spontaneously beating right atrium. Particulars: Cavia porcellus, spontaneous rhythm, percentage change; for inhibition at 1 µg/mL: 1 ug/ml. Details: species or system guineapig. On the procedure: (§1) c) Finally, the chronotropic and inotropic activities were measured on isolated guineapig atria placed in isolated organ cells. The organs are then connected to force gauges. The right atrium, beating in a spontaneous rhythm, enables the negative chronotropic effects of the products to be assessed. As regards the left atria, these are electrically stimulated at a fixed rhythm so as to evaluate actions on the inotropic effect. The percentage changes are recorded in Table V for the compounds A, B, G and J, by way of non-limiting examples.

The test system of the next data set is Left atrium. Kind of data set: Inotropic effect on isolated electrically stimulated left atrium. Details: species or system guineapig. Particulars: Cavia porcellus, electrically stimulated at fixed rhythm, percentage change; for inhibition at 1 µg/mL: 1 ug/ml. The procedure: as §1
The nature of another data set: Solubility in water. Type of data set: physicochemical.

The values that follow come from patent US5071850A, “2,3-dihydro-3-arylalkylaminoalkyl-4H-1,3-benzoxazin-4-one derivatives, their preparation and their application as medicinal products which are useful in therapy” (Pierre Fabre Medicament, priority 1988, dated 1991).

Usually LD50 stands for the dose expected to kill half of the subjects tested. Low readings indicate greater toxicity, high ones lower toxicity. The inhibition is the change of the read-out against control, counted positive when it falls. One may read the solubility as the dissolved amount per volume that the medium holds. Higher therefore signals a readily soluble substance.

The structures appear in SMILES notation. Counter-ions that a name gives are not always drawn. Where only a bound is given, the exact number is not on record here.

On to `COc1ccc(CCN(C)CCCN2COc3ccccc3C2=O)cc1OC.Cl` [Compound A, 2,3-Dihydro-3-{3-[(methyl)(3,4-dimethoxyphenethyl)amino]propyl}-4H-1,3-benzoxazin-4-one hydrochloride], for which the LD50 in data set [1] is 27 mg/kg. Further, in the data set on anesthetized rats (2.5 mg/kg iv), the “% fall in heart rate after 1 min” value was -30%, the “% fall in heart rate after 10 min” value is reported as -11% and the “% fall in arrhythmias” value is given as -9%. Also, in the data set with anesthetized rats (10 mg/kg iv), the “% fall in heart rate after 1 min” value is given as -50%, the “% fall in heart rate after 10 min” value was -19% and the “% fall in arrhythmias” value is given as -76%. Besides, in data set [2] (3 mg/kg iv), the “% ABP (mean arterial blood pressure)” value is listed as -33%, the “% HR (heart rate)” value is recorded as -31%, the “% modification of the ECG intervals: PQ (atrioventricular conduction time)” value (“% modification of the ECG intervals: PQ” below) is “+26%” and the “% modification of the ECG intervals: QRS (intraventricular conduction time)” value (“% modification of the ECG intervals: QRS” for short) is recorded as “+11%”. In data set [2] (3 mg/kg iv), the “% modification of the ECG intervals: QTS” value is “+29%” and the “% modification of the ECG intervals: TP (electrocardiac diastole)” value (shortened to “% modification of the ECG intervals: TP”) is “+76%”. Also, the Heart rate after in the data set with conscious dogs (1 mg/kg iv, after test product, hydralazine tachycardia) was 140 bts/min. The same compound yielded a Heart rate before with conscious dogs (1 mg/kg iv, before test product, after hydralazine 1 mg/kg iv) of 215 bts/min. For the same compound, the “Heart rate Change” value in the data set with conscious dogs (1 mg/kg iv, hydralazine tachycardia) is recorded as -35%. In the data set with Right atrium (0.3 ug/ml), this compound showed an inhibition at 0.3 µg/mL of 15%. For the same compound, 1 µg/mL produced 19% inhibition in the data set with Right atrium. The inhibition at 0.3 µg/mL in the data set with Left atrium (0.3 ug/ml) came out at 16%. Besides, the inhibition at 1 µg/mL with Left atrium amounted to 15%. Also, in “Solubility in water”, the solubility was found to be 100 mg/mL.
`COc1ccc(CCN(C)CCCN2COc3c(OC)cccc3C2=O)cc1OC.Cl` [Compound C, 2,3-Dihydro-3-{3-[(methyl)(3,4-dimethoxyphenethyl)amino]propyl}-8-methoxy-4H-1,3-benzoxazin-4-one hydrochloride] displayed a solubility in “Solubility in water” of around 100 mg/mL.
`COc1ccc2c(c1)C(=O)N(CCCN(C)CCc1ccc(OC)c(OC)c1)CO2.Cl` [Compound D, 2,3-Dihydro-3-{3-[(methyl)(3,4-dimethoxyphenethyl)amino]propyl}-6-methoxy-4H-1,3-benzoxazin-4-one hydrochloride]: the solubility in the data set “Solubility in water” is above 100 mg/mL.
Regarding `COc1ccc2c(c1)OCN(CCCN(C)CCc1ccc(OC)c(OC)c1)C2=O.Cl` [Compound E, 2,3-Dihydro-3-{3-[(methyl)(3,4-dimethoxyphenethyl)amino]propyl}-7-methoxy-4H-1,3-benzoxazin-4-one hydrochloride], the solubility in “Solubility in water” came to 100 mg/mL.
The same measure, in the same setting: to `COc1ccc(CCN(C)CCCN2COc3ccc(C)cc3C2=O)cc1OC.Cl` [Compound F, 2,3-Dihydro-3-{3-[(methyl)(3,4-dimethoxyphenethyl)amino]propyl}-6-methyl-4H-1,3-benzoxazin-4-one hydrochloride] belongs around 100 mg/mL.
In the case of `COc1ccc(CCN(C)CCCN2COc3cc(C)ccc3C2=O)cc1OC.Cl` [Compound G, 2,3-Dihydro-3-{3-[(methyl)(3,4-dimethoxyphenethyl)amino]propyl}-7-methyl-4H-1,3-benzoxazin-4-one hydrochloride], in the data set with anesthetized rats (2.5 mg/kg iv), the “% fall in heart rate after 1 min” value is -39%, the “% fall in heart rate after 10 min” value is reported as -16% and the “% fall in arrhythmias” value was -1%. For the same compound, in data set [2] (1 mg/kg iv), the “% ABP (mean arterial blood pressure)” value is on record as -10%, the “% HR (heart rate)” value was -18%, the “% modification of the ECG intervals: PQ” value was “+10%” and the “% modification of the ECG intervals: QRS” value is “+5%”. In addition, in data set [2] (1 mg/kg iv), the “% modification of the ECG intervals: QTS” value is listed as “+12%” and the “% modification of the ECG intervals: TP” value is listed as “+32%”. Moreover, in the data set on Right atrium, the inhibition at 1 µg/mL worked out at 35%. Moreover, in the data set on Left atrium, testing at 1 µg/mL gave an inhibition of 4%. Also, in the data set “Solubility in water”, the solubility worked out at 90 mg/mL.
Consider `COc1ccc(CCN(C)CCCN2COc3c(C)cccc3C2=O)cc1OC.Cl` [Compound H, 2,3-Dihydro-3-{3-[(methyl)(3,4-dimethoxyphenethyl)amino]propyl}-8-methyl-4H-1,3-benzoxazin-4-one hydrochloride], for which the solubility in the data set “Solubility in water” was determined as 80 mg/mL.
`COc1ccc(CCN(C)CCCN2COc3cc(Cl)ccc3C2=O)cc1OC.Cl` [Compound J, 7-Chloro-2,3-dihydro-3-{3-[(methyl)(3,4-dimethoxyphenethyl)amino]propyl}-4H-1,3-benzoxazin-4-one hydrochloride]: in the data set with anesthetized rats (2.5 mg/kg iv), the “% fall in heart rate after 1 min” value is on record as -32%, the “% fall in heart rate after 10 min” value is -12% and the “% fall in arrhythmias” value is -37%. In data set [2] (1 mg/kg iv), the “% ABP (mean arterial blood pressure)” value is -13%, the “% HR (heart rate)” value was -16%, the “% modification of the ECG intervals: PQ” value is “+9%” and the “% modification of the ECG intervals: QRS” value is given as “+12%”. Besides, in data set [2] (1 mg/kg iv), the “% modification of the ECG intervals: QTS” value was “+12%” and the “% modification of the ECG intervals: TP” value is given as “+29%”. For the same compound, the inhibition at 1 µg/mL with Right atrium was 29%. The compound further returned an inhibition at 1 µg/mL in the data set on Left atrium of 11%. The compound further showed a solubility in the data set “Solubility in water” of 120 mg/mL.
In the data set “Solubility in water”, `COc1ccc(CCN(C)CCCN2COc3ccc(Br)cc3C2=O)cc1OC.Cl` [Compound K, 6-Bromo-2,3-dihydro-3-{3-[(methyl)(3,4-dimethoxyphenethyl)amino]propyl}-4H-1,3-benzoxazin-4-one hydrochloride] displayed a solubility of 90 mg/mL.
On the same count and under the same terms, to `COc1ccc(CCN(C)CCCN2C(=O)c3cccc(OC)c3OC2C)cc1OC.Cl` (centres unmarked) [Compound L, 2,3-Dihydro-3-{3-[(methyl)(3,4-dimethoxyphenethyl)amino]propyl}-8-methoxy-2-methyl-4H-1,3-benzoxazin-4-one hydrochloride] belongs 100 mg/mL.
Same read-out and setting: to `COc1ccc(CCN(C)CCCN2C(=O)c3cc(OC)c(OC)cc3OC2C)cc1OC.Cl` (centres unmarked) [Compound M, 2,3-Dihydro-6,7-dimethoxy-3-{3-[(methyl)(3,4-dimethoxyphenethyl)amino]propyl}-2-methyl-4H-1,3-benzoxazin-4-one hydrochloride] belongs 100 mg/mL.
Take `CCCCCCCC1Oc2cc(OC)c(OC)cc2C(=O)N1CCCN(C)CCc1ccc(OC)c(OC)c1` (centres unmarked) [Compound N, hydrochloride]: in the data set with anesthetized rats (2.5 mg/kg iv), the “% fall in heart rate after 1 min” value is recorded as -4%, the “% fall in heart rate after 10 min” value is given as -6% and the “% fall in arrhythmias” value is listed as -72%. For the same compound, in data set [2] (1 mg/kg iv), the “% ABP (mean arterial blood pressure)” value was -9%, the “% HR (heart rate)” value is -12%, the “% modification of the ECG intervals: PQ” value is given as “+7%” and the “% modification of the ECG intervals: QRS” value is on record as “+12%”. In data set [2] (1 mg/kg iv), the “% modification of the ECG intervals: QTS” value is given as “+10%” and the “% modification of the ECG intervals: TP” value is listed as “+21%”. Also, the solubility in the data set “Solubility in water” is 100 mg/mL.
`COc1cc2c(cc1OC)C(=O)N(CCCN(C)CCc1ccccc1)CO2.Cl` [Compound O, 2,3-Dihydro-6,7-dimethoxy-3-{3-[(methyl)(phenethyl)amino]propyl}-4H-1,3-benzoxazin-4-one hydrochloride] yielded a solubility in the data set “Solubility in water” above 100 mg/mL.
Same read-out and setting: to `COc1ccc(CCNCCCN2COc3cc(OC)c(OC)cc3C2=O)cc1OC.Cl` [Compound P, 2,3-Dihydro-6,7-dimethoxy-3-[3-(3,4-dimethoxyphenethylamino)propyl]-4H-1,3-benzoxazin-4-one hydrochloride] belongs above 100 mg/mL; to `COc1ccc(CCNCCN2COc3cc(OC)c(OC)cc3C2=O)cc1OC.Cl` [Compound R, 2,3-Dihydro-6,7-dimethoxy-3-[2-(3,4-dimethoxyphenethylamino)ethyl]-4H-1,3-benzoxazin-4-one hydrochloride], 120 mg/mL.
Still for that read-out and setting: to `COc1ccc(CCN(CCCN2COc3cc(OC)c(OC)cc3C2=O)Cc2ccccc2)cc1OC` [Example 17, 2,3-Dihydro-6,7-dimethoxy-3-{3-[(benzyl)(3,4-dimethoxyphenethyl)amino]propyl}-4H-1,3-benzoxazin-4-one hydrochloride monohydrate] belongs 60 mg/mL.
On to `NNc1nncc2ccccc12` [hydralazine, reference compound], for which the “heart rate effect of hydralazine” value in the data set on conscious dogs (hydralazine 1 mg/kg iv, conscious dogs) is on record as “causes tachycardia”.
